Patent US4690939A, “Anti-hypertensive agents” (University of Miami, priority 1979, dated 1987)
pIC50: −log10 of the molar value. Non-standard residues stand in square brackets, D forms with d. Residues, ends and D or L forms follow the SMILES beside them. No end group written: not given here. pGlu = O=C1CC[C@@H](C(=O)O)N1

Tests used:
[1] = system: ACE; details: competitive substrates; cited from earlier work
[2] = target: T1, human urinary ACE (Homo sapiens, UniProt P12821); test: ACE activity assay (inhibition of benzoyl-GlyHisLeu hydrolysis); format: biochemical; details: substrate approximately 1/2 Km (Example 1 assay), read-out: I50
T1 construct: from tissue; host or cells: human urine
Method: These factors include the source of enzyme, its purity, the substrate used and its concentration, and the composition of the assay buffer.
ACE activity assay. […] To initiate the assay, 40 μl of enzyme and 10 μl of water or inhibitor dissolved in water were preincubated for five minutes at 37° C. […] To terminate the reaction, 1 ml of 0.1 M HCl was added, following which 1 ml of ethyl acetate was added. The mixture was agitated on a rotary mixer and centrifuged briefly to separate the phases.
For determination of I50 values, enzyme activity in the presence of inhibitor at a series of different concentrations was compared to activity in the absence of inhibitor.

T1 sequence (P12821 30-1232 limits assumed): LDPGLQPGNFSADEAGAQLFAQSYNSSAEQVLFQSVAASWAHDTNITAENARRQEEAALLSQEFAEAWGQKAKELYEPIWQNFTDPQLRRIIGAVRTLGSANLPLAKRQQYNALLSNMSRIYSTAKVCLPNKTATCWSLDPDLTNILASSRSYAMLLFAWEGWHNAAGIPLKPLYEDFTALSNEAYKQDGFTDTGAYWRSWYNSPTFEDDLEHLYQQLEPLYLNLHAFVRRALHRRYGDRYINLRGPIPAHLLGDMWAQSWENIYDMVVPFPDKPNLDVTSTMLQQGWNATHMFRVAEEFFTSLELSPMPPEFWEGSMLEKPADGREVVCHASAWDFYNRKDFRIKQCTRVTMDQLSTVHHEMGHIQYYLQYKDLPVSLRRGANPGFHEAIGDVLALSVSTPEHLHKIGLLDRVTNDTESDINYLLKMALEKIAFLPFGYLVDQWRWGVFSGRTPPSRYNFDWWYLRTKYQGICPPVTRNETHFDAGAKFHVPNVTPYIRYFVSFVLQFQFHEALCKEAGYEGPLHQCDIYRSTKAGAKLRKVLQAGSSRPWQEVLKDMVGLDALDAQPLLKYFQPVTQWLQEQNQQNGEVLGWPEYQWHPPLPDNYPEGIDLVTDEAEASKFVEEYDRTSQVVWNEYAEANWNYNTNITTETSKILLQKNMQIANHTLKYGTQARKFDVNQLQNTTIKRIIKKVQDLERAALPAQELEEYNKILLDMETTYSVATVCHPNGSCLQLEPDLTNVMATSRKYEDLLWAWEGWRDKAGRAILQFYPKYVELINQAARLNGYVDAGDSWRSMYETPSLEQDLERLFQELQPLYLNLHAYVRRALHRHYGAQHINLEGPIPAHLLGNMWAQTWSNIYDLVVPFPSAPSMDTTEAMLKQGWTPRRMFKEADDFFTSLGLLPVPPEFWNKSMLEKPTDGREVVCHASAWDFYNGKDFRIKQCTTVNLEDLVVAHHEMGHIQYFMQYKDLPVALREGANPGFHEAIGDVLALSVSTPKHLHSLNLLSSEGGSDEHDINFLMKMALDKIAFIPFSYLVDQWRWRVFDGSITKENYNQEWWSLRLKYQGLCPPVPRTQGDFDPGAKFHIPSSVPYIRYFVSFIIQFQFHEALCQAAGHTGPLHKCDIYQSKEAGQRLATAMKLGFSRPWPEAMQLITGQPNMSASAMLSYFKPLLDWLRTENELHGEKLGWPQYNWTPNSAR

Compound	Km relative to angiotensin I [1]	pIC50 [2]
C[C@H](NC(=O)[C@H](Cc1c[nH]c2ccccc12)NC(=O)[C@H](CCCCN)NC(=O)[C@@H]1CCC(=O)N1)C(=O)N1CCC[C@H]1C(=O)O [BPP5a] ([pGlu]KWAP-OH)	lower Km than angiotensin I	
CC(=O)N[C@@H](Cc1ccccc1)C(=O)SC[C@@H](C)C(=O)N1CCC[C@H]1C(=O)O [N^α -[3-(N^α -acetyl-L-phenylalanylthio)-2-D-methylpropanoyl]-L-proline]		7.59
RPPGFSPFR [bradykinin]	lower Km than angiotensin I	
